Measurements taken from paper PMC7155171, “Probing the Open Global Health Chemical Diversity Library for Multistage-Active Starting Points for Next-Generation Antimalarials” (ACS Infectious Diseases, 2020).
Read-outs that look alike come from different tables or passages of the source.

Key:
[1] = tested on: P. falciparum Dd2 (PfLuc) line expressing firefly luciferase, asexual blood stage; assay: microbe, parasite or virus in culture; format: cell-based, Plasmodium falciparum; details: Plasmodium falciparum
[2] = tested on: P. falciparum Dd2; assay: SYBR green I asexual blood stage proliferation assay (96 h); format: cell-based, Plasmodium falciparum; details: Plasmodium falciparum, DD2, 11-pt dose response, 96hr
[3] = DD2, read-out: CDD P. falciparum Luciferase ABS 11-pt Reconfirmation Dose Response (48hr): IC50 (μM), 11-pt dose response, 48hr
[4] = DD2, 8-pt dose response, 96hr, read-out: CDD P. falciparum Luciferase ABS 8-pt Reconfirmation Dose Response (96hr): IC50
[5] = DD2, 8-pt dose response, 96hr, read-out: CDD P. falciparum Luciferase ABS 8-pt Reconfirmation Dose Response (96hr): Maximum inhibition (%)
[6] = DD2, 11-pt dose response, 48hr, read-out: CDD P. falciparum Luciferase ABS 11-pt Reconfirmation Dose Response (48hr): Maximum inhibition (%)
[7] = DD2, 11-pt dose response, 96hr, read-out: CDD P. falciparum Luciferase ABS 11-pt Reconfirmation Dose Response (96hr): IC50
[8] = DD2, 11-pt dose response, 96hr, read-out: CDD P. falciparum Luciferase ABS 11-pt Reconfirmation Dose Response (96hr): Maximum inhibition (%)
[9] = Sybr Green I, read-out: CDD P. falciparum Sybr Green I ABS 11-pt Reconfirmation Dose Response (96hr): IC50
[10] = Sybr Green I, read-out: CDD P. falciparum Sybr Green I ABS 11-pt Reconfirmation Dose Response (96hr): Maximum inhibition (%)
[11] = DD2, read-out: P. falciparum Luciferase ABS 11-pt Reconfirmation Dose Response (48hr): IC50, 11-pt dose response, 48hr
[12] = DD2, 8-pt dose response, 96hr, read-out: P. falciparum Luciferase ABS 8-pt Reconfirmation Dose Response (96hr): IC50
[13] = DD2, 8-pt dose response, 96hr, read-out: P. falciparum Luciferase ABS 8-pt Reconfirmation Dose Response (96hr): Maximum inhibition (%)
[14] = DD2, 11-pt dose response, 96hr, read-out: P. falciparum Luciferase ABS 11-pt Reconfirmation Dose Response (96hr): IC50
[15] = DD2, 11-pt dose response, 96hr, read-out: P. falciparum Luciferase ABS 11-pt Reconfirmation Dose Response (96hr): Maximum inhibition (%)
[16] = read-out: P. falciparum Sybr Green I ABS 11-pt Reconfirmation Dose Response (96hr): IC50
[17] = read-out: P. falciparum Sybr Green I ABS 11-pt Reconfirmation Dose Response (96hr): Maximum inhibition (%)
[18] = 96 h incubation, Dd2 luciferase, read-out: 96 hour Pfluc IC50
[19] = DD2, 11-pt dose response, 48hr, read-out: P. falciparum Luciferase ABS 11-pt Reconfirmation Dose Response (48hr): Maximum inhibition (%)

Row | Compound | IC50 [1, 3] [µM] | IC50 [1, 4] [µM] | Emax [1, 5] [%] | Emax [1, 6] [%] | IC50 [1, 7] [µM] | Emax [1, 8] [%] | IC50 [2, 9] [nM] | Emax [2, 10] [%] | IC50 [1, 11] [µM] | IC50 [1, 12] [µM] | Emax [1, 13] [%] | IC50 [1, 14] [µM] | Emax [1, 15] [%] | IC50 [2, 16] [nM] | Emax [2, 17] [%] | IC50 [1, 18] [µM] | Emax [1, 19] [%]
1 | Cc1cccc(C2(NCCCS(C)(=O)=O)CCCC2)c1 [DDD01078804] | 12.1 | 0.66 | 85 | 56.6 | 1.93 | 85.9 | 6570 | 74.2 |  |  |  |  |  |  |  |  | 
2 | Cc1cn2c(n1)C(CNCc1ccc(C)s1)CCC2 (centres unmarked) [DDD01079169] | 1.64 | 0.63 | 93.4 | 93.3 | 0.471 | 100 | 2250 | 83.8 |  |  |  |  |  |  |  |  | 
3 | O=C(CN1CCCC(c2ccn[nH]2)C1)Nc1nc2c(s1)CCC2 (centres unmarked) [DDD01079497] | 0.618 | 0.22 | 90.5 |  | 0.451 | 97.6 | 192 | 73.2 |  |  |  |  |  |  |  |  | 
4 | Cc1cc(C2CCCN(CC(=O)Nc3nc4c(s3)CCC4)C2)n[nH]1 (centres unmarked) [DDD01079504] | 0.456 | 0.28 | 81.5 | 84.9 | 0.388 | 97.8 | 179 | 71.3 |  |  |  |  |  |  |  |  | 
5 | Cc1cc(Br)cnc1NCCN1CCC(N(C)C)CC1 [DDD01079597] | 7.01 | 0.51 | 92.4 | 87.3 | 1.15 | 99.5 | 3190 | 92.7 |  |  |  |  |  |  |  |  | 
6 | COc1cccc(CNC(CN2CCN(C)CC2)c2ccccc2)c1 (centres unmarked) [DDD01079897] | 2.58 | 0.38 | 91 | 83.2 | 0.79 | 98.1 | 1650 | 94.5 |  |  |  |  |  |  |  |  | 
7 | Cc1ccc(CNC(CN2CCN(C)CC2)c2ccccc2)cc1 (centres unmarked) [DDD01079898] | 4.31 | 0.26 | 91.3 | 88.2 | 1.21 | 98.8 | 1360 | 95.9 |  |  |  |  |  |  |  |  | 
8 | Cc1cccc(CNC(CN2CCN(C)CC2)c2ccccc2)c1 (centres unmarked) [DDD01079901] | 2.73 | 0.24 | 91.5 | 89.2 | 0.53 | 99 | 449 | 98.3 |  |  |  |  |  |  |  |  | 
9 | NCC1(c2cccc(Br)c2)CCOCC1 [DDD01079955] | 4.79 | 0.84 | 87.3 | 58.8 | 1.63 | 85.9 | > 4160 | 76.8 |  |  |  |  |  |  |  |  | 
10 | COCCCN1CCCN(C(C)C(=O)Nc2cccc(I)c2)CC1 (centres unmarked) [DDD01080015] | 2.64 | 0.87 | 92 | 71.5 | 1.94 | 94.8 | 10600 | 77.7 |  |  |  |  |  |  |  |  | 
11 | c1cnn(C[C@@H]2C[C@@H]3CN(CC4CC4)CC[C@@H]3N2c2nccs2)c1 [DDD01081619] |  |  |  |  |  |  |  |  | 2.56 | 1.48 | 94.2 | 1.87 | 99.5 | 2700 | 73.6 |  | 
12 | Cc1ccc(CNC2CC3(CCN(CCO)CC3)c3ccccc32)s1 (centres unmarked) [DDD01082017] | 3.82 | 0.41 | 91 | 80.4 | 1.07 | 98 | 2900 | 89.2 |  |  |  |  |  |  |  |  | 
13 | COCCN1CCC2(CC1)CC(NCc1ccc(C)s1)c1ccccc12 (centres unmarked) [DDD01082023] | 7.58 | 0.63 | 90 |  | 1.55 | 96.4 | 2420 | 82.4 |  |  |  |  |  |  |  |  | 
14 | Cc1cc(C)cc(CN2C[C@H]3COC[C@H](N4CCN(C)CC4)[C@H]3C2)c1 [DDD01083756] | 2.44 | 0.23 |  | 79.9 | 0.791 | 97.2 | 1080 |  |  |  |  |  |  |  |  |  | 
15 | CC(C)N(C)Cc1cnc2n1CCN(C(=O)NC1CCCC1)C2 [DDD01085014] | > 12.5 | 0.4 | 87.1 | 50.3 | 0.478 | 91 | 3090 | 52.8 |  |  |  |  |  |  |  |  | 
16 | Fc1cnc(N2CCCC3(CCN(Cc4ccsc4)C3)C2)nc1 (centres unmarked) [DDD01085292] | 2.31 | 1 | 83.3 | 68.3 | 1.53 | 92.4 | > 4160 | 70.7 |  |  |  |  |  |  |  |  | 
17 | c1cc(-c2n[nH]cc2-c2ccnc(N3CCCCCC3)n2)ccn1 [DDD01235864] | > 4.16 | 0.00697 | 93.5 | 62.2 | 0.0308 | 93.5 | 5.64 |  |  |  |  |  |  |  |  | 0.03 | 
18 | CN(CCO)C[C@@H]1CN(C2CCN(c3ccccc3Cl)CC2)C[C@@H]1CO [DDD01243670] | 0.887 | 0.4 | 94.9 | 96.9 | 0.653 | 99.6 | 1340 | 86.9 |  |  |  |  |  |  |  |  | 
19 | Oc1cccc2ccc(CN3CCC4(CCNCC4)C3)nc12 [DDD01243747] | 0.642 | 0.76 | 92 | 97.9 | 0.231 | 101 | 10800 | 75.2 |  |  |  |  |  |  |  |  | 
20 | Cn1cc(CN2CCCC(CCc3ccccc3C(F)(F)F)C2)cn1 (centres unmarked) [DDD01243772] |  |  |  |  |  |  |  |  | 4.26 | 1.59 | 82.8 | 4.34 |  | 4890 | 62 |  | 66.1
21 | NC1CCCCN(Cc2cc(-c3ccccc3OC(F)(F)F)no2)C1 (centres unmarked) [DDD01244394] |  |  |  |  |  |  |  |  | > 4.16 | 1.45 | 88.9 | > 1.39 | 97.5 | > 4160 | 69.6 |  | 84.8
22 | CC1CCCCN1C(=O)c1coc(COc2cccc3cnccc23)n1 (centres unmarked) [DDD01245028] | 0.751 | 0.61 | 94 | 97 | 0.469 | 99.8 | 568 | 97.7 |  |  |  |  |  |  |  |  | 
23 | CCN(Cc1c(F)cccc1Cl)c1cc(C2CCNCC2)nc(C)n1 [DDD01245231] | 0.763 | 0.55 | 91.3 | 99.4 | 0.504 | 99.8 | 2500 | 81.1 |  |  |  |  |  |  |  |  | 
24 | CCC[C@H]1CN(S(=O)(=O)c2ccc(-c3c(C)noc3C)s2)C[C@@H]1N [DDD01245572] | > 12.5 | 1 | 81.3 | 19 | 2.92 | 74.1 | 5570 | 55.3 |  |  |  |  |  |  |  |  | 
25 | Clc1ccccc1C1(c2ccnc(C3CCCC3)n2)CCNCC1 [DDD01245610] | 4.17 | 0.49 | 87.3 | 92.8 | 0.755 | 98.9 | 3550 | 76.4 |  |  |  |  |  |  |  | 0.76 | 
26 | NCC1Cc2cc(-c3nccc(N4CCC(O)CC4)n3)cc(Cl)c2O1 (centres unmarked) [DDD01245918] | 2.64 | 0.55 | 92 | 75.2 | 1.96 | 96.7 | 4210 | 83.9 |  |  |  |  |  |  |  |  | 
27 | CCCOc1ccc2ccccc2c1CN1CC[C@@]2(O)CCNC[C@H]2C1 [DDD01246029] | 2.85 | 1 |  | 96.3 | 1.42 | 98.8 | 2760 | 96.5 |  |  |  |  |  |  |  |  | 
28 | Clc1ccccc1C1(c2ccnc(C3CC3)n2)CCNCC1 [DDD01246037] | 7.25 | 0.61 | 89.2 |  | 1.02 | 93.1 | 4410 | 78 |  |  |  |  |  |  |  |  | 
29 | c1ccc(-c2nc3c(c(NCc4n[nH]c5c4CCC5)n2)CCNC3)cc1 [DDD01246472] | 4.12 | 0.92 | 92.6 | 97.5 | 0.635 | 99.5 | 2890 | 98.2 |  |  |  |  |  |  |  |  | 
30 | CCN1CC(c2ccccc2)CC2(CCN(Cc3ncc[nH]3)CC2)C1 (centres unmarked) [DDD01246660] | 7.46 | 0.79 | 90.9 | 59 | 3.35 | 85.5 | 3390 | 89.2 |  |  |  |  |  |  |  |  | 
